Measured values: the supplement of paper PMC11451515

Tested on: SEM cells
Test: cell viability relative to DMSO control; higher = less cytotoxic
Conditions: 48 h
Summary of the method: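 Leukemia cells (NOMO1 or SEM, 500 cells/well; P12-Ichikawa, 1000 cells/well) were seeded in 5 μl in 1536-well plates after at least four passages of adaptation to each medium. They received library compounds in DMSO by pin dosing, 11 threefold points from 47 μM to 0.79 nM. Luminescence with CellTiter-Glo One was read after 48 h at 37°C. Viability is stated per plate relative to DMSO wells, with cell-free wells as background.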

[1] = HPLM + 10% dialyzed FBS, 0.000781 µM
[2] = HPLM + 10% dialyzed FBS, 0.00234 µM
[3] = HPLM + 10% dialyzed FBS, 0.00702 µM
[4] = HPLM + 10% dialyzed FBS, 0.0211 µM
[5] = HPLM + 10% dialyzed FBS, 0.0632 µM
[6] = HPLM + 10% dialyzed FBS, 0.19 µM
[7] = HPLM + 10% dialyzed FBS, 0.569 µM
[8] = HPLM + 10% dialyzed FBS, 1.71 µM
[9] = HPLM + 10% dialyzed FBS, 5.12 µM
[10] = HPLM + 10% dialyzed FBS, 15.4 µM
[11] = HPLM + 10% dialyzed FBS, 46.1 µM
[12] = RPMI 5 mM glucose + 10% FBS, 0.000781 µM
[13] = RPMI 5 mM glucose + 10% FBS, 0.00234 µM
[14] = RPMI 5 mM glucose + 10% FBS, 0.00702 µM
[15] = RPMI 5 mM glucose + 10% FBS, 0.0211 µM
[16] = RPMI 5 mM glucose + 10% FBS, 0.0632 µM
[17] = RPMI 5 mM glucose + 10% FBS, 0.19 µM
[18] = RPMI 5 mM glucose + 10% FBS, 0.569 µM
[19] = RPMI 5 mM glucose + 10% FBS, 1.71 µM
[20] = RPMI 5 mM glucose + 10% FBS, 5.12 µM
[21] = RPMI 5 mM glucose + 10% FBS, 15.4 µM
[22] = RPMI 5 mM glucose + 10% FBS, 46.1 µM
[23] = RPMI 5 mM glucose + 10% dialyzed FBS, 0.000781 µM
[24] = RPMI 5 mM glucose + 10% dialyzed FBS, 0.00234 µM
[25] = RPMI 5 mM glucose + 10% dialyzed FBS, 0.00702 µM
[26] = RPMI 5 mM glucose + 10% dialyzed FBS, 0.0211 µM
[27] = RPMI 5 mM glucose + 10% dialyzed FBS, 0.0632 µM
[28] = RPMI 5 mM glucose + 10% dialyzed FBS, 0.19 µM
[29] = RPMI 5 mM glucose + 10% dialyzed FBS, 0.569 µM
[30] = RPMI 5 mM glucose + 10% dialyzed FBS, 1.71 µM
[31] = RPMI 5 mM glucose + 10% dialyzed FBS, 5.12 µM
[32] = RPMI 5 mM glucose + 10% dialyzed FBS, 15.4 µM
[33] = RPMI 5 mM glucose + 10% dialyzed FBS, 46.1 µM

| SMILES | cell viability [1] [%] | cell viability [2] [%] | cell viability [3] [%] | cell viability [4] [%] | cell viability [5] [%] | cell viability [6] [%] | cell viability [7] [%] | cell viability [8] [%] | cell viability [9] [%] | cell viability [10] [%] | cell viability [11] [%] | cell viability [12] [%] | cell viability [13] [%] | cell viability [14] [%] | cell viability [15] [%] | cell viability [16] [%] | cell viability [17] [%] | cell viability [18] [%] | cell viability [19] [%] | cell viability [20] [%] | cell viability [21] [%] | cell viability [22] [%] | cell viability [23] [%] | cell viability [24] [%] | cell viability [25] [%] | cell viability [26] [%] | cell viability [27] [%] | cell viability [28] [%] | cell viability [29] [%] | cell viability [30] [%] | cell viability [31] [%] | cell viability [32] [%] | cell viability [33] [%] |
| --- | --- | --- | --- | --- | --- | --- | --- | --- | --- | --- | --- | --- | --- | --- | --- | --- | --- | --- | --- | --- | --- | --- | --- | --- | --- | --- | --- | --- | --- | --- | --- | --- | --- |
| O=C1Nc2ccc(Cl)cc2[C@@](C#CC2CC2)(C(F)(F)F)O1 | 65.1 | 74 | 86.3 | 95 | 86 | 88.4 | 88.8 | 80.2 | 88.9 | 96 | 93.4 | 71.8 | 69.8 | 82.2 | 84.9 | 89.6 | 84.6 | 84.4 | 87.8 | 85.9 | 91.6 | 63.7 | 62.1 | 70 | 89.5 | 81.2 | 82.7 | 78.9 | 85.6 | 81.5 | 81.8 | 84.8 | 54.7 |
| CC1(C)C(=O)N(CCN2CCC(C(=O)c3ccc(F)cc3)CC2)c2ccccc21 | 92.5 | 111 | 113 | 111 | 119 | 119 | 119 | 113 | 103 | 98.7 | 101 | 102 | 121 | 115 | 115 | 105 | 117 | 115 | 100 | 89.7 | 107 | 94.2 | 111 | 109 | 105 | 134 | 116 | 115 | 117 | 124 | 111 | 114 | 101 |
| CC1=CC=CC=C1CN2C(=O)C/3=C(/CCN(CC4=CC=CC=C4)C3)N\5CC\N=C25 | 113 | 121 | 125 | 115 | 117 | 120 | 115 | 110 | 94 | 25.3 | 19.6 | 129 | 119 | 114 | 101 | 114 | 109 | 97.1 | 95.9 | 50.9 | 13.2 | 9.39 | 127 | 121 | 119 | 119 | 141 | 119 | 136 | 133 | 58.4 | 19.6 | 19.8 |
| C[S+](=O)([O-])N(Cc1ccco1)CC(O)Cn1c2ccccc2c2ccccc21 (stereo not given) | 106 | 88.5 | 100 | 100 | 99.5 | 98 | 92.8 | 97.6 | 55.4 | 56.5 | 18.5 | 115 | 113 | 127 | 119 | 122 | 116 | 106 | 109 | 63.3 | 59.1 | 10.7 | 91.8 | 99.5 | 108 | 96.7 | 102 | 106 | 91 | 78.4 | 46.3 | 35.9 | 8.62 |
| COc1cc2c(Oc3ccc(NC(=O)C4(C(=O)Nc5ccc(F)cc5)CC4)cc3F)ccnc2cc1OCCCN1CCOCC1 | 45.9 | 38.6 | 35.5 | 35.9 | 33.8 | 31.9 | 32.3 | 16.1 | 19.9 | 17.1 | 3.11 | 59.2 | 45.2 | 42.3 | 43.6 | 37.4 | 33.6 | 42.5 | 13.5 | 10.9 | 7.49 | 3.41 | 41.9 | 28.5 | 34.8 | 28.2 | 23.9 | 25.3 | 25.7 | 9.12 | 11.7 | 8.88 | 2.51 |
| CCCCNc1cc(C(=O)O)cc([S+](N)(=O)[O-])c1Oc1ccccc1 | 80.3 | 97.7 | 100 | 101 | 103 | 95.8 | 99.9 | 107 | 115 | 116 | 118 | 111 | 110 | 117 | 114 | 111 | 109 | 107 | 112 | 116 | 141 | 111 | 108 | 110 | 109 | 113 | 115 | 126 | 107 | 123 | 135 | 120 | 128 |
| CN(C)C(=O)c1ccc([S+](=O)([O-])c2ccc(NC(=O)[C@@](C)(O)C(F)(F)F)c(Cl)c2)cc1 | 98.1 | 105 | 104 | 112 | 110 | 104 | 129 | 120 | 118 | 116 | 80 | 95.3 | 122 | 110 | 109 | 124 | 108 | 112 | 123 | 120 | 24.3 | 4.66 | 99.3 | 98.8 | 108 | 102 | 107 | 88 | 103 | 111 | 111 | 72.8 | 20.9 |
| CC(C)Oc1cc(Nc2nc(N[C@@H](C)c3ccc(F)cn3)ncc2Cl)n[nH]1 | 106 | 103 | 90.3 | 102 | 96.3 | 80.5 | 50.5 | 34.6 | 26 | 22.1 | 25.3 | 109 | 83.1 | 96 | 95.6 | 108 | 81.2 | 60.3 | 21.9 | 19.2 | 14.8 | 16.2 | 84.9 | 98 | 100 | 114 | 83 | 67.9 | 43.4 | 26.3 | 17.9 | 14.9 | 16.2 |
| C1CCC(C(CC2CCCCN2)C2CCCCC2)CC1 (stereo not given) | 82.6 | 92.2 | 94.9 | 98.3 | 104 | 110 | 93.5 | 96.9 | 118 | 54.1 | 7.7 | 94.4 | 122 | 93 | 113 | 116 | 117 | 110 | 112 | 111 | 45.1 | 19.6 | 85.7 | 93.9 | 91.7 | 85.5 | 100 | 86.6 | 96.8 | 110 | 89.9 | 37.7 | 34 |
| CC(=O)OCC(=O)[C@@]12\N=C(C)/O[C@@H]1C[C@H]3[C@@H]4CCC/5=C/C(=O)/C=C\[C@]5(C)[C@H]4[C@@H](O)C[C@]23C | 75.3 | 85.5 | 87.8 | 85.1 | 68 | 97 | 97.8 | 100 | 92.5 | 90.1 | 24.9 | 86.6 | 103 | 91.5 | 102 | 66.3 | 109 | 97.9 | 113 | 86.9 | 86.6 | 18.2 | 101 | 95.2 | 107 | 106 | 80.7 | 104 | 105 | 115 | 86.8 | 79.8 | 19.4 |
| Cc1cccc(C)c1OCC(=O)N[C@@H](Cc1ccccc1)[C@@H](O)C[C@H](Cc1ccccc1)NC(=O)[C@H](C(C)C)N1CCCNC1=O | 80.3 | 94.2 | 86.7 | 96.4 | 100 | 81.4 | 85.6 | 76 | 78.5 | 65.4 | 39 | 97.7 | 94.2 | 102 | 94.8 | 108 | 103 | 95.9 | 90.9 | 79.6 | 77.1 | 36.7 | 79.8 | 101 | 93.7 | 102 | 104 | 100 | 107 | 104 | 85.5 | 69.1 | 31.2 |
| CCNC(=O)c1cc2c(-c3cc(OCCN4CCCC4)c(Cl)cc3Cl)nc(N)nc2s1 | 114 | 112 | 112 | 101 | 104 | 114 | 101 | 95.2 | 32.2 | 20.1 | 19.4 | 103 | 108 | 117 | 96.6 | 112 | 112 | 112 | 86.9 | 31.9 | 21.8 | 18.7 | 96.2 | 98.6 | 92.2 | 110 | 98.7 | 112 | 98 | 68.3 | 30.3 | 19.4 | 19.1 |
| COc1cc(Nc2ncc(F)c(Nc3ccc4c(n3)NC(=O)C(C)(C)O4)n2)cc(OC)c1OC | 87.1 | 99 | 106 | 123 | 106 | 103 | 95.8 | 57.7 | 6.83 | 4.48 | 4.63 | 57.5 | 73 | 70.6 | 70.4 | 68.4 | 70.6 | 55 | 34.9 | 3.27 | 3.07 | 3.1 | 95 | 111 | 101 | 95.2 | 89.8 | 104 | 91.2 | 49.4 | 9.48 | 3.83 | 4.35 |
| OC(=O)\C1=C\N(C2=CC=C(F)C=C2)C3=C(C=C(F)C(=C3)N4CCNCC4)C1=O | 89.5 | 101 | 100 | 101 | 105 | 90.7 | 82.4 | 89.4 | 86.4 | 90 | 93.9 | 101 | 108 | 120 | 92.1 | 114 | 112 | 97.2 | 95.7 | 110 | 113 | 103 | 103 | 103 | 112 | 125 | 107 | 111 | 87.5 | 113 | 95.3 | 95.1 | 87.3 |
| C[C@H]1C[C@H]2[C@@H]3CCC4=CC(=O)C=C[C@]4(C)[C@@]3(F)[C@@H](O)C[C@]2(C)[C@@]1(O)C(=O)CO | 86.1 | 105 | 101 | 92.8 | 99.5 | 78.5 | 68.9 | 27.5 | 67.1 | 31.3 | 66 | 101 | 110 | 106 | 105 | 91.6 | 67.3 | 66.7 | 26.4 | 69.6 | 22.8 | 64.4 | 108 | 140 | 114 | 93.6 | 87.1 | 72.6 | 72.3 | 24 | 53.2 | 23.9 | 74 |
